Measurements as given in ChEMBL document CHEMBL1777678, “2,4-diarylthiazole antiprion compounds as a novel structural class of antimalarial leads” (Bioorg Med Chem Lett, 2011).
pEC50, pIC50: −log10 of the molar value. Activity calls are given as the source filed them. No cut-off for these calls is given here.

Experiments:
[1] = Antiprion activity against Chandler strain of sheep scrapie prion protein infected in mouse SMB cells assessed as clearance of disease-associated scrapie prion protein; format: cell-based, Ovis aries; conditions: for pEC50: Ovis aries, SMB, read-out: EC50; for EC50: smb
[2] = test system: Plasmodium falciparum; test: Antimalarial malarial activity against chloroquine-sensitive Plasmodium falciparum 3D7 infected in human A positive erythrocytes assessed as inhibition of [3H]hypoxanthine incorporation after 24 hrs; format: functional, organism-based
[3] = test system: Plasmodium falciparum; test: Antimalarial malarial activity against chloroquine-resistant Plasmodium falciparum K1 infected in human A positive erythrocytes assessed as inhibition of [3H]hypoxanthine incorporation after 24 hrs; format: functional, organism-based
[4] = Cytotoxicity against mouse SMB cells up to 20 uM; format: cell-based
[5] = test system: Plasmodium falciparum; test: Antimalarial malarial activity against chloroquine-sensitive Plasmodium falciparum 3D7 infected in human A positive erythrocytes assessed as inhibition of [3H]hypoxanthine incorporation at 19.3 ug/ml after 24 hrs; format: functional, organism-based
[6] = test system: Plasmodium falciparum; test: Antimalarial malarial activity against chloroquine-resistant Plasmodium falciparum K1 infected in human A positive erythrocytes assessed as inhibition of [3H]hypoxanthine incorporation 10 ug/ml after 24 hrs; format: functional, organism-based

SMILES	pEC50 [1]	pIC50 [2]	pIC50 [3]	Activity [4]	inhibition [5]	EC50 [1]	inhibition [6]
CCN(CC)CCCNC(=O)c1sc(-c2ccccc2)nc1-c1ccccc1	5.64	6.00	4.88	Non-toxic			
CCN(CC)CCNC(=O)c1sc(-c2ccccc2)nc1-c1ccccc1	5.31		6.15	Non-toxic	inactive		
CCN(CC)CCNC(=O)c1sc(-c2cccnc2)nc1-c1ccccc1	4.70		5.28	Non-toxic	inactive		
CN(C)CCNC(=O)c1sc(-c2ccccc2)nc1-c1ccccc1	5.32		5.06	Toxic	inactive		
O=C(c1sc(-c2ccccc2)nc1-c1ccccc1)N1CCC(N2CCCC2)CC1	5.26	4.92	5.21	Non-toxic			
CCN(CC)CCNC(=O)c1sc(-c2cccs2)nc1-c1ccccc1	5.17	4.86	5.36	Non-toxic			
O=C(NCCCn1ccnc1)c1sc(-c2ccccc2)nc1-c1ccccc1		4.86	4.94	Non-toxic		Not Active	
CCN(CC)CCNC(=O)c1sc(-c2ccc(OC)cc2)nc1-c1ccccc1	5.40		5.11	Non-toxic	inactive		
O=C(c1sc(-c2ccccc2)nc1-c1ccccc1)N1CCC(N2CCCCC2)CC1	5.72	4.69	6.08	Non-toxic			
O=C(NCc1ccccn1)c1sc(-c2ccccc2)nc1-c1ccccc1		4.71	4.82	Non-toxic		Not Active	
O=C(NCCN1CCOCC1)c1sc(-c2ccccc2)nc1-c1ccccc1				Non-toxic	inactive	Not Active	inactive
O=C(NCCN1CCCC1)c1sc(-c2ccccc2)nc1-c1ccccc1	4.97		4.83	Toxic	inactive		
CCN(CC)CCCC(C)Nc1ccnc2cc(Cl)ccc12 (stereo not drawn) [CHLOROQUINE]	5.64						
CCN(CC)CCCC(C)NC(=O)c1sc(-c2ccccc2)nc1-c1ccccc1 (stereo not drawn)	5.54	5.02	5.42	Non-toxic			
